According to patent US11975005B2, “Treatment of respiratory diseases” (TIANLI BIOTECH PTY LTD, priority 2015, dated 2024):

What was measured:
[1] = molecular target: CK1ε (Homo sapiens, UniProt P49674); test: CK1ε inhibition (IC50); assay type: biochemical
[2] = tested on: RSV; test: 5 day model of RSV infection, treatments from day 1; assay type: in vivo, mice; conditions: administered from day 1
[3] = molecular target: T1, ALK5 (Homo sapiens, UniProt P36897); test: ALK5 inhibition (IC50); assay type: biochemical
T1 sequence (P36897 34-503): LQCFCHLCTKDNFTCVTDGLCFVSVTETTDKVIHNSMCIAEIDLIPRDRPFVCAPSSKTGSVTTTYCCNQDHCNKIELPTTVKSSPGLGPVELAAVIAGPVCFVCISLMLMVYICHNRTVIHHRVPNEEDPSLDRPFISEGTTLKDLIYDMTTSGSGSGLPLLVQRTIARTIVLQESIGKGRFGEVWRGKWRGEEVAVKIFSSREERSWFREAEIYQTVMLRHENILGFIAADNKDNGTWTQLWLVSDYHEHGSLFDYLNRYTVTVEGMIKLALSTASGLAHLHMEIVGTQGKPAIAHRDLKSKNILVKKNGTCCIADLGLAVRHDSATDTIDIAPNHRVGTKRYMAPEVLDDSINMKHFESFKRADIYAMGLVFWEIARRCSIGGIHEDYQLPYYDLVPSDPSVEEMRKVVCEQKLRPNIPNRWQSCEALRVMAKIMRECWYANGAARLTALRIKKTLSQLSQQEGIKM

[4] = tested on: human lung fibroblasts; test: bFGF/TGFβ proliferation of human lung fibroblasts (viable cell number); assay type: cell-based; conditions: 48 h
Source text: Experiments described in the current Example and Example 14 involved culture of human parenchymal fibroblasts, measurement of their proliferation and gene expression response, the methods for which are detailed in Schuliga et al 2009 (Am J Respir Cell Mol Biol. 2009; 41(6):731-41). Interaction between TGFβ and bFGF in human lung fibroblasts. […] An interaction previously characterized in airway smooth muscle cultures is that TGFβ reduces the proliferative effects of bFGF. A similar finding is observed in human lung fibroblasts, whereby TGFβ reduces the bFGF mitogenic effects.

[5] = tested on: glucocorticoid response element (GRE) activity; test: GRE activity / GRE reporter in BEAS-2B cells; assay type: cell-based, human; conditions: BEAS-2B cells; RV16 0.1 or 1.0 MOI; SB431542 1 μM
Protocol: Data are presented as the means and SEM of 3 independent experiments. *P<0.05, cf corresponding Dex 30 nM response.
(§1) The methods used in Examples 1 to 5 (and 10, 19, 20) are similar to those reported in Salem et al 2012 (Br J Pharmacol. 166:2036-2048) and again in Keenan et al 2014 (Respiratory Research, e15:55) in which methods for cell culture, GRE assays and gene expression measurements are fully described. Additional methods for growth of respiratory syncytial virus (RSV) and rhinovirus (RV) are described in Collins et al 2007 (Respir Physiol Neurobiol. 2007 Jun. 15; 156(3):345-52.) and by Xatzipsalti and papdopoulos, 2007 (Contrib Microbiol. 2007; 14:33-41).

[6] = tested on: GRE-dependent gene expression; test: Glucocorticoid-induced gene expression in BEAS-2B cells; assay type: cell-based, human
Source text: as §1
Data are presented as the means and SEM of 4 independent experiments. *P<0.05, cf corresponding Dex 30 nM response. […] Thus, TNFα contribution to glucocorticoid resistance, may be independent of TGFβ. The resistance is exemplified by the epithelial sodium channel alpha subunit SCNN1a which assembles into a Na channel that is thought to contribute to water reabsorption from the airspaces that are flooded during acute lung injury.
TGFβ suppression ranged in magnitude amongst the genes selected for analysis. […] TGFβ and Dex synergise in increasing the expression of PAI-1 (FIG. 24B).

[7] = human lung fibroblasts, PF4800567 1.0 μM
[8] = FIG. 6A, BEAS-2B, SB431542 1 μM, PF670462 10 μM

Chain of CK1ε (P49674 whole entry): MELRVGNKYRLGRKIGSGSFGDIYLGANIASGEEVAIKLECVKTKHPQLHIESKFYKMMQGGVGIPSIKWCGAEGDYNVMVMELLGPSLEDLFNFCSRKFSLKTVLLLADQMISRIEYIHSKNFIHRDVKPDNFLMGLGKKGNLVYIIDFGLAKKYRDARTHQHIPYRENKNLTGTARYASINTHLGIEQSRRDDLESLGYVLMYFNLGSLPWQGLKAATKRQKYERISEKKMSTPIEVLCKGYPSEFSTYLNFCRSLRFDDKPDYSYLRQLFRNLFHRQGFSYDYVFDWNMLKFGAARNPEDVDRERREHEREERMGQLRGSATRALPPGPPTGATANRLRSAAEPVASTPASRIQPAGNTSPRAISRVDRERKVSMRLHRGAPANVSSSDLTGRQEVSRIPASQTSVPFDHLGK

| SMILES | IC50 [1] [µM] | accumulation of inflammatory cells in the BAL fluid [2] | IC50 [3] [µM] | bFGF induced mitogenesis [4, 7] | bFGF induced mitogenesis in the presence of TGFβ [4, 7] | impairment of Dexamethasone 30 nM GRE responses by Rhinovirus (RV16) infection [5] | effect of TGFβ on bFGF mitogenesis ([4]; human lung fibroblasts from donors without IPF, viable cell number) | suppression of Dex (30 nM) gene expression response (SCNN1a) induced by IL-13/IL-4 ([6]; BEAS-2B cells, IL-13/IL-4 at 10 ng/ml, PF670462 1 or 10 μM, SB431542 1 μM) | impairment of Dexamethasone 30 nM GILZ gene expression responses by RV16 infection ([6]; BEAS-2B cells, RV16 1.0 MOI, pretreatment) | suppression of Dex (30 nM) gene expression response (SCNN1a) induced by the combination TNFα, IL-13 and IL-4 ([6]; BEAS-2B cells, each at 0.1 ng/ml, PF670462 1 or 10 μM, SB431542 1 μM) | TGFβ suppression of glucocorticoid-induced CDKN1C (p57kip2) expression ([6]; BEAS-2B, Dex 100 nM, PF670462 1-10 μM) | levels of GILZ in RV infected cells [6, 8] | levels of GILZ in uninfected cells [6, 8] | RV infection-induced decrease of Dex-induced GILZ expression ([6]; FIG. 6B, BEAS-2B, SB431542 3 μM, PF670462 3 μM) |
| --- | --- | --- | --- | --- | --- | --- | --- | --- | --- | --- | --- | --- | --- | --- |
| O=C(NC1CCOCC1)c1ccc(-c2cc(-c3c[nH]nc3-c3ccccn3)ccn2)cc1 [GW788388] | 18.6 | no activity | – | – | – | – | – | – | – | – | – | – | – | – |
| Nc1ncnc2c1c(COc1cccc(Cl)c1)nn2C1CCOCC1 [PF4800567] | 0.011 | – | 4.13 | reduced | remained suppressed | – | – | – | – | – | – | – | – | – |
| NC(=O)c1ccc(-c2nc(-c3ccc4c(c3)OCO4)c(-c3ccccn3)[nH]2)cc1 [SB431542] | – | – | – | – | – | prevented | able to block | some impact | greatly diminished | no detectable effect | completely blocked | increased | but not in uninfected cells | prevented |
